Values belong to the compound of their own block, whether it stands above or below them.
Columns and labels:
[1] = tested on: TMD8 (ABC) or Karpas 422 (GCB) cells; experiment: 3H-thymidine incorporation proliferation assay with lenalidomide co-treatment; assay type: cell-based
[2] = molecular target: CRBN (Homo sapiens, UniProt Q96SW2); experiment: Thalidomide analog bead assay with extracts of DF15R cells re-expressing wild type or mutant CRBN; assay type: binding; set-up: re-express full length wild type (CRBN^WT); expressed in transfected cells; host or cells: DF15R (CRBN-deficient myeloma) cells, lentiviral transduction, cell extract; conditions: recombinant CRBN WT expressed in DF15R; preincubation of cell extracts with free compound
Experimental: (§1) DF15, DF15R or DF15R derived cell line extracts were prepared in NP 40 lysis buffer (0.5% NP40, 50 mM Tris HCl (pH 8.0), 150 mM NaCl, 0.5 mM DTT, 0.25 mM PMSF, 1× protease inhibitor mix (Roche, Indianapolis, Ind.) at approximately 2×10^8 cells per ml […]. Cell debris and nucleic acids were cleared by centrifugation (14,000 rpm 30 min 4° C.). In competition experiments 0.5 ml (3-5 mg protein) aliquots of the resulting extracts were preincubated (15 min room temp.) with 5 μl DMSO (control) or 5 μl compound at varying concentrations in DMSO. Thalidomide analog-coupled beads (0.3-0.5 mg) were added to protein extracts and samples rotated (2 hours, 4° C.). Beads were washed three times with 0.5 ml NP40 buffer, and then bound proteins were eluted with SDS-PAGE sample buffer.
(§2) Cell extracts from these lines were then used to assay the ability of CRBN to bind immunomodulatory agent compound.
(§3) Cell extracts from this line were used to assay the ability of CRBN^E377V to bind Immunomodulatory agent compound.

[3] = tested on: human PBMCs; experiment: IL2 release co-stimulation in human PBMCs treated with anti-CD3; assay type: cell-based
[4] = molecular target: MBP-IKZF1 (a.a. 140-168) / CRBN-DDB1 (Homo sapiens, UniProt Q13422+Q96SW2); conditions: 100 uM compound; IKZF1 domain with one predicted zinc finger
[5] = tested on: mouse splenocytes; experiment: IL2 induction in mouse splenocytes / mouse PBMC treated with anti-CD3; assay type: cell-based
Description: Data are shown as mean±s.d. (B) Costimulation of IL2 release by anti-CD28 (squares) or pomalidomide (circles) in mouse PBMC treated with anti-CD3. Data are shown as mean±s.d.

[6] = tested on: DF15R myeloma cells; experiment: Cell proliferation assay of DF15R cells re-expressing wild type or mutant CRBN treated with pomalidomide; assay type: cell-based
Experimental: (A) Cell lines re-expressing full-length CRBN wild-type. W386A or W400A mutants were tested for the ability to bind immunomodulatory agent compounds. Assay was repeated at least three times. Representative Western blot of representative experiment is shown. (B) Cell proliferation assay of DF15 (sensitive). DF15R (resistant; CRBN^null), CRBNWT, CRBNW386A; CRBN400 cells treated with a dose response of pomalidomide. Assays were done in triplicate and error bars representative s.d. Data for each cell line was normalized to treatment with vehicle (DMSO). (C) Western blots of key downstream effectors of immunomodulatory agent resistance.
(A) Cell lines re-expressing RFP or full length CRBN wild type or E377V mutant were tested for the ability of CRBN proteins to bind immunomodulatory agent compounds. Assay was repeated at least three times. Representative Western blot of representative experiment is shown. (B) Cell proliferation assay of DF15 (sensitive), DF15R (resistant; CRBN^null), CRBN^WT, CRBN^E377V cells treated with a dose response of pomalidomide. Assays were done in triplicate and error bars represent s.d. Data for each cell line was normalized to treatment with vehicle (DMSO).
The antiproliferative effect of immunomodulatory agent compounds on myeloma cells is mediated through CRBN protein. […]

[7] = molecular target: T1, CRBN (Homo sapiens, UniProt Q96SW2, E377V); experiment: Thalidomide analog bead assay with extracts of DF15R cells re-expressing wild type or mutant CRBN; assay type: binding; conditions: CRBN E377V mutant; preincubation of cell extracts with free compound
T1 construct: re-express full length wild type (CRBN^WT); expressed in transfected cells; host or cells: DF15R (CRBN-deficient myeloma) cells, lentiviral transduction, cell extract
Experimental: as §1, §2, §3

[8] = tested on: H929 and U266 multiple myeloma cell lines; experiment: Cell viability by flow cytometry in CRBN inducible shRNA knockdown cells; assay type: cell-based; conditions: CRBN inducible knockdown vs shControl; 5 day treatment
Experimental: (A) An inducible shRNA construct targeting CRBN or a control construct was transduced into the multiple myeloma cell lines H929 and U266. Inducible shRNA expression (marked by turbo-RFP) was monitored by flow cytometry over a period of 1 to 9 days as indicated in the histograms (Top row). […] (B) CRBN protein expression was quantified by Western blotting. […] (D)-(F) After 9 days of shRNA inducible knock-down, cells were treated with increasing doses of pomalidomide and compound effect in cell viability was assayed by flow cytometry after 5 day treatment. […] Data are shown as mean of three independent experiments±s.d.
Inducible shRNA constructs targeting CRBN or a control construct (Open Biosystems) were transduced using spinoculation methodology into the multiple myeloma cell lines H929 and U266. Stably transduced cells were selected with puromycin. Inducible shRNA expression (marked by RFP) was monitored by fluorescence microscopy and flow cytometry using 1 μg/mL doxycycline. CRBN protein expression was quantified by Western blotting. Cell proliferation and viability were assessed by 7AAD/flow cytometry assays.

SMILES: Cc1nc2cccc(N)c2c(=O)n1C1CCC(=O)NC1=O (stereo not drawn) [Compound A, 3-(5-amino-2-methyl-4-oxo-4H-quinazolin-3-yl)-piperidine-2,6-dione]
anti-proliferative effects on co-treatment with lenalidomide ([1]; co-treatment with 10 μM lenalidomide, 3H-thymidine incorporation): blocks anti-proliferative effects

SMILES: Nc1cccc2c1CN(C1CCC(=O)NC1=O)C2=O (stereo not drawn) [lenalidomide, 3-(4-amino-1-oxo-1,3-dihydro-isoindol-2-yl)-piperidine-2,6-dione, reference compound]
competition for CRBN ([1]; co-culture with Compound A or Compound C): competes with Compound A and Compound C for CRBN

competition for CRBN binding to thalidomide analog-beads [2]: competed for binding to the beads
pull down of CRBN-DDB1 by minimal IKZF1 domain [4]: sufficient to pull down CRBN-DDB1
competition for CRBN binding to thalidomide analog-beads [7]: competed
SMILES: Nc1cccc2c1C(=O)N(C1CCC(=O)NC1=O)C2=O (stereo not drawn) [pomalidomide]
IL2 release [3]: Co-stimulation of IL2 release
IL-2 induction [5]: resistant to the IL-2 inducing effects
antiproliferative sensitivity ([6]; DF15R re-expressing CRBN E377V): unable to rescue sensitivity
antiproliferative effect ([6]; DF15R re-expressing CRBN WT): regained antiproliferative effect
anti-proliferative effects in CRBN knockdown cells [8]: reduced anti-proliferative effects

competition for CRBN binding to thalidomide analog-beads [2]: competed for binding to the beads
competition for CRBN binding to thalidomide analog-beads [7]: competed
SMILES: O=C1CCC(N2C(=O)c3ccccc3C2=O)C(=O)N1 (stereo not drawn) [thalidomide]

From patent US10830762B2, “Compositions and methods for inducing conformational changes in cereblon and other E3 ubiquitin ligases” (Celgene Corporation, priority 2015, dated 2020)
